Assays:
VHR = VHR (Homo sapiens, UniProt P51452); assay: VHR phosphatase inhibition, general phosphatase assay using para-nitrophenylphosphate; format: biochemical; details: read-out: IC50 Target VHR
From the text: (§1) Assays protocols for the other enzymes mentioned herein (MtPTPA, PP1, VHR, PTP1B) are disclosed in Schweizer R A S, Atanasov, G A, Frey B M, and Odermatt A, Mol. Cell. Endocrinol. 2003, 212, 41-49 and Barratte, B., Meijer L., Galaktionov K. & Beach D, Anticancer Res. 1992, 12, 873-880. For determination of the phosphatase activity, a general phosphatase assay using para-nitrophenylphosphate was applied.

PTP1B = biological target: T1, PTP1B (Homo sapiens, UniProt P18031); assay: PTP1B phosphatase inhibition, general phosphatase assay using para-nitrophenylphosphate; format: biochemical; details: read-out: IC50 Target PTP1B
T1 sequence (P18031 1-435): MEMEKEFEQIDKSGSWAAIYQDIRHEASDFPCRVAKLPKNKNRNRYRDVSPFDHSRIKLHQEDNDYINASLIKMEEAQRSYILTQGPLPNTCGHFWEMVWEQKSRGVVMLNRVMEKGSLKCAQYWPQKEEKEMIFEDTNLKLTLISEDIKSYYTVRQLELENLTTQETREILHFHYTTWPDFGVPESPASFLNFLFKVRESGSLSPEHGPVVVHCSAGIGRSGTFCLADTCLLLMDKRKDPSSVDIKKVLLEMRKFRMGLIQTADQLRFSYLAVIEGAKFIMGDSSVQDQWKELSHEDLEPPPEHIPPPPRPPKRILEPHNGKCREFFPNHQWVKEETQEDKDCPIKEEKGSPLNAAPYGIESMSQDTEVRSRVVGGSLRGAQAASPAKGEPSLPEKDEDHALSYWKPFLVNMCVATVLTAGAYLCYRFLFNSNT
From the text: as §1

VHR, sequence (P51452 whole entry, species assumed): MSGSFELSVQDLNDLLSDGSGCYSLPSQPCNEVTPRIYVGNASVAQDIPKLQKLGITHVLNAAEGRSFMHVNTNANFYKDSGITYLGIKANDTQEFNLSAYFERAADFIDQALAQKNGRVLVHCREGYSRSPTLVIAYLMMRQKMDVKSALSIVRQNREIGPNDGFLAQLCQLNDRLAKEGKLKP

| IC50 (VHR) [µM] | IC50 (PTP1B) [µM] | SMILES |
| --- | --- | --- |
| 10 to 50 | – | CC1=C2CCC[C@H](O)[C@@]2(C)C/C(=C\c2ccc(Cl)cc2)C1=O [Compound 7, (3E,4aS,5S)-3-(4-Chlorobenzyliden)-4,4a,5,6,7,8-hexahydro-5-hydroxy-1,4a-dimethylnaphthalen-2(3H)-one] |
| 10 to 50 | – | CC1=C2CCC[C@H](O)[C@@]2(C)C/C(=C\c2ccccc2)C1=O [Compound 18, (3E,4aS,5S)-3-benzylidene-4,4a,5,6,7,8-hexahydro-5-hydroxy-1,4a-dimethylnaphthalen-2(3H)-one] |
| < 10 | – | CC1=C2CCC[C@H](O)[C@@]2(C)C/C(=C\c2cc(C)cs2)C1=O [Compound 19, (3E,4aS,5S)-4,4a,5,6,7,8-Hexahydro-5-hydroxy-1,4a-dimethyl-3-[(4-methylthiophen-2-yl)methylen]naphthalen-2(3H)-one] |
| 10 to 50 | – | CCCCCCCCc1ccc(/C=C2\C[C@@]3(C)C(=C(C)C2=O)CCC[C@@H]3O)c(C)c1 [Compound 20, (3E,4aS,5S)-3-(2-Methyl-4-octyl-benzyliden)-4,4a,5,6,7,8-hexahydro-5-hydroxy-1,4a-dimethyl-naphthalen-2(3H)-one] |
| – | 10 to 50 | CC1=C2CCC[C@H](O)[C@@]2(C)C/C(=C\c2ccco2)C1=O [Compound 34, (3E,4aS,5S)-3-[(Furan-2-yl)methylen]-4,4a,5,6,7,8-hexahydro-5-hydroxy-1,4a-dimethylnaphthalen-2(3H)-one] |
| – | 10 to 50 | COC#Cc1ccc(/C=C2\C[C@@]3(C)C(=C(C)C2=O)CCC[C@@H]3O)cc1 [Compound 37, (3E,4aS,5S)-3-[4-(2-Methoxy-ethinyl)benzyliden]-4,4a,5,6,7,8-hexahydro-5-hydroxy-1,4a-dimethylnaphthalen-2(3H)-one] |
| – | 10 to 50 | CC1=C2CCC[C@H](O)[C@@]2(C)C/C(=C\c2ccc(C#Cc3ccc(C)cc3)cc2)C1=O [Compound 41, (3E,4aS,5S)-3-[4-(2-p-Tolylethinyl)benzyliden]-4,4a,5,6,7,8-hexahydro-5-hydroxy-1,4a-dimethyl-naphthalen-2(3H)-one] |
| – | 10 to 50 | CC1=C2CCC[C@H](O)[C@@]2(C)C/C(=C\CCc2ccco2)C1=O [Compound 59, (3E,4aS,5S)-3-[3-(Furan-2-yl)propyliden]-4,4a,5,6,7,8-hexahydro-5-hydroxy-1,4a-dimethylnaphthalen-2(3H)-one] |
| – | 10 to 50 | CC1=C2CCC[C@H](O)[C@@]2(C)C/C(=C\c2c(C)c(C)c(C)c(C)c2C)C1=O [Compound 61, (3E,4aS,5S)-3-(2,3,4,5,6-Pentamethylbenzyliden)-4,4a,5,6,7,8-hexahydro-5-hydroxy-1,4a-dimethylnaphthalen-2(3H)-one] |
| – | 10 to 50 | CC1=C2CCC[C@H](O)[C@@]2(C)C/C(=C\c2ccc(OCc3ccccc3)cc2)C1=O [Compound 66, (3E,4aS,5S)-3-[4-(Benzyloxy)benzyliden]-4,4a,5,6,7,8-hexahydro-5-hydroxy-1,4a-dimethylnaphthalen-2(3H)-one] |
| 10 to 50 | – | CCc1ccc(/C=C2\C[C@@]3(C)C(CCC[C@@H]3O)C(C)C2=O)c(C)c1 (stereo partly drawn) [Compound 89, (E,4aS,5S)-3-(4-Ethyl-2-methylbenzyliden)-octahydro-5-hydroxy-1,4a-dimethylnaphthalen-2(1H)-one] |
| – | 10 to 50 | CCCCCCCCCC#Cc1ccc(/C=C2\C[C@@]3(C)C(=C(C)C2=O)CCC[C@@H]3O)cc1 [Compound 90, (3E,4aS,5S)-3-[4-(Undec-1-inyl)benzyliden]-4,4a,5,6,7,8-hexahydro-5-hydroxy-1,4a-dimethylnaphthalen-2(3H)-one] |
| 10 to 50 | – | CC1=C2CCC[C@H](O)[C@@]2(C)C/C(=C\c2ccc(O)c(O)c2O)C1=O [Compound 107, (3E,4aS,5S)-3-(2,3,4-Trihydroxybenzyliden)-4,4a,5,6,7,8-hexahydro-5-hydroxy-1,4a-dimethylnaphthalen-2(3H)-one] |
| 10 to 50 | – | CC1=C2CCC[C@H](O)[C@@]2(C)C/C(=C\c2c[nH]c3ccccc23)C1=O [Compound 115, (3E,4aS,5S)-3-[(1H-Indol-3-yl)methylen]-4,4a,5,6,7,8-hexahydro-5-hydroxy-1,4a-dimethylnaphthalen-2(3H)-one] |
| 10 to 50 | – | CCCCCCC#Cc1ccc(/C=C2\C[C@@]3(Cc4ccccc4)C(=C(C)C2=O)CCC[C@@H]3O)cc1 [Compound 126, (3E,4aS,5S)-3-[4-(Oct-1-inyl)benzyliden]-4a-benzyl-4,4a,5,6,7,8-hexahydro-5-hydroxy-1-methylnaphthalen-2(3H)-one] |
| 10 to 50 | – | C[C@]12C/C(=C\c3ccc(C#Cc4ccccc4)cc3)C(=O)C=C1CCC[C@@H]2O [Compound 136, (3E,4aS,5S)-3-[4-(2-Phenylethinyl)benzyliden]-4,4a,5,6,7,8-hexahydro-5-hydroxy-4a-methylnaphthalen-2(3H)-one] |

| IC50 (VHR) [µM] | IC50 (PTP1B) [µM] | SMILES |
| --- | --- | --- |
| 10 to 50 | – | COc1cc(CC2(C)C(NC3CCCCC3)CC[C@@]3(C)C2CCC[C@@H]3O)cc(OC)c1 (stereo partly drawn) [Compound 146, (1S,8aS)-5-(3,5-Dimethoxybenzyl)-6-(cyclohexylamino)-decahydro-5,8a-dimethylnaphthalen-1-ol] |
| 10 to 50 | – | CCOC(=O)CC1(C)C(=O)CC[C@@]2(C)C1CCC[C@@H]2O (stereo partly drawn) [Compound 153, Ethyl-2-[(4aS,5S)-decahydro-5-hydroxy-1,4a-dimethyl-2-oxonaphthalen-1-yl]acetat] |
| 10 to 50 | – | CC1C(=O)/C(=C/c2ccccc2OCc2ccccc2)C[C@@]2(C)C1CCC[C@@H]2O (stereo partly drawn) [Compound 190, (E,4aS,5S)-3-[2-(Benzyloxy)-benzyliden]-octahydro-5-hydroxy-1,4a-dimethylnaphthalen-2(1H)-one] |
| 10 to 50 | – | C[C@H]1/C(=C\c2ccccc2)C(=O)C=C2CCC[C@H](O)[C@]21C [Compound 203, (3E,4R,4aS,5S)-3-Benzyliden-4,4a,5,6,7,8-hexahydro-5-hydroxy-4,4a-dimethylnaphthalen-2(3H)-one] |
| 10 to 50 | – | CC1=C2CCC[C@H](O)[C@@]2(C)C/C(=C\c2c(C)c(C)c(C)c(C)c2C)C1=O [Compound 215, (3E,4aS,5S)-3-(2,3,4,5,6-Pentamethylbenzyliden)-4,4a,5,6,7,8-hexahydro-5-hydroxy-1,4a-dimethylnaphthalen-2(3H)-one] |
| 10 to 50 | – | C[C@]12C/C(=C\c3ccccc3OCc3ccccc3)C(=O)C=C1CCC[C@@H]2O [Compound 223, (3E,4aS,5S)-3-[2-(Benzyloxy)benzyliden]-4,4a,5,6,7,8-hexahydro-5-hydroxy-4a-methylnaphthalen-2(3H)-one] |
| 10 to 50 | – | CCCC(C)/C=C1\C[C@@]2(C)C(=CC1=O)CCC[C@@H]2O (stereo partly drawn) [Compound 225, (3E,4aS,5S)-4,4a,5,6,7,8-Hexahydro-5-hydroxy-4a-methyl-3-(2-methylpentyliden)naphthalen-2(3H)-one] |
| 10 to 50 | – | C=CC[C@@]12C(=CC(=O)/C(=C/C3=CC[C@@H](C(=C)C)CC3)[C@@H]1C)CCC[C@@H]2O [Compound 241] |
| 10 to 50 | – | C=CC[C@@]12C(=CC(=O)/C(=C/c3ccc(C)o3)[C@@H]1C)CCC[C@@H]2O [Compound 242, (3E,4R,4aS,5S)-4a-Allyl-4,4a,5,6,7,8-hexahydro-5-hydroxy-4-methyl-3-[(5-methylfuran-2-yl)methylen]naphthalen-2(3H)-on] |
| 10 to 50 | – | C[C@@H]1C(O)CC[C@]2(C)C(=O)/C(=C/c3ccco3)CCC12 (stereo partly drawn) [Compound 266, (E,5S,8aS)-2-[(Furan-2-yl)methylen]-octahydro-6-hydroxy-5,8a-dimethylnaphthalen-1(2H)-one] |
| 10 to 50 | – | COc1cc(OC)c(OC)cc1/C=C1\CCC2[C@H](C)C(O)CC[C@]2(C)C1=O (stereo partly drawn) [Compound 267, (E,5S,8aS)-2-(2,4,5-Trimethoxy-benzyliden)-octahydro-6-hydroxy-5,8a-dimethylnaphthalen-1(2H)-one] |
| – | 10 to 50 | C=CC[C@@]12C(=CC(=O)/C(=C/CC)[C@@H]1C)CCC[C@@H]2O [Compound 282, (3E,4R,4aS,5S)-4a-Allyl-4,4a,5,6,7,8-hexahydro-5-hydroxy-4-methyl-3-propylidennaphthalen-2(3H)-one] |
| 10 to 50 | – | C=C(C)[C@H]1CC=C(/C=C2\C[C@@]3(C)C(=CC2=O)CCC[C@@H]3O)CC1 [Compound 286, (3E,4aS,5S)-4,4a,5,6,7,8-Hexahydro-5-hydroxy-4a-methyl-3-{[(R)-4-(prop-1-en-2-yl)cyclohex-1-enyl]methylen}naphthalen-2(3H)-one] |
| 10 to 50 | – | CC1(CCc2ccccc2)C(=O)/C(=C/c2ccc(I)cc2)CC2(C)C1CCCC21OCCO1 (stereo not drawn) [Compound 402, (7′E)-7′-(4-iodo-benzylidene)-5′,8a′-dimethylhexahydro-5′-(2-phenylethyl)-2′H-spiro[1,3-dioxolane-2,1′-naphthalen]-6′(5′H)-one] |
| 10 to 50 | – | CC1(Cc2ccccc2[N+](=O)[O-])C(=O)CC[C@@]2(C)C1CCC[C@@H]2O (stereo partly drawn) [Compound 405, (4aS,5S)-5-Hydroxy-1,4a-dimethyl-1-(2-nitro-benzyl)-octahydro-naphthalen-2-one] |
| 10 to 50 | – | COc1cc(OC)c(/C=C2\C[C@]3(C)C(=O)CCCC3=C(C)C2=O)c(OC)c1 [Compound 408, (3E,4aS)-5,8a-Dimethyl-7-(2,4,6-trimethoxy-benzylidene)-3,4,8,8a-tetrahydro-2H,7H-naphthalen-1,6-dione] |

| SMILES | IC50 (VHR) [µM] | IC50 (PTP1B) [µM] |
| --- | --- | --- |
| CC1=C2CCC[C@H](O)[C@@]2(C)C/C(=C\c2ccoc2)C1=O [Compound 62] | 10 to 50 | – |

— patent US20090062401A1, “DECALINE-DERIVED COMPOUNDS AS […] ACTIVE AGENTS” (UNIVERSITAT DORTMUND, priority 2004, published 2009)
